{"source": "paper PMC10154330", "about": "“Machine learning-driven multifunctional peptide engineering for sustained ocular drug delivery” (Nature Communications, 2023)", "key": {"[1]": {"test": "Ocular safety evaluation / ocular grading after ICM injection", "details": "rabbit, in vivo", "procedure": "For the IOP measurements in normotensive rabbits, Dutch Belted rabbits (2–3 kg) were used (n = 5). IOP was measured with a hand-held rebound tonometer icareTONOVET (Vantaa, Finland) in the awake and gently restrained rabbit. Each rabbit was acclimatized to the IOP measurement procedure for at least 5 days to obtain a stable background IOP reading. A mean of three IOP measurements for an individual eye were taken every other day for 6 days (3 times in total) and used as a baseline value. For the ICM injection procedure, rabbits were anesthetized with ketamine/xylazine and received topical anesthesia with 0.5% proparacaine hydrochloride. A corneal pre-puncture was performed with a 30 G needle, followed with a single bolus ICM injection of 200 µg (mass of brimonidine) of HR97-brimonidine or brimonidine tartrate solution in 100 µL saline using a 28 G needle. After the procedure, topical bacitracin-neomycin-polymyxin ophthalmic ointment was applied to both eyes to prevent infection and dry eyes. On day 7, an ophthalmologist masked to treatment evaluate the HR97-brimonidine injected eyes with the following items: functionality of lids, lashes, conjunctiva, cornea transparency, pigmentation of corneal endothelium, depth of anterior chambers, inflammation, fibrin strands, and symmetry of the lens[113]. […] In a separate study, a corneal pre-puncture was performed with a 30 G needle, followed with a single bolus ICM injection of 200 µg (mass of brimonidine) containing a physical mixture of unconjugated HR97 and brimonidine tartrate (HR97 + brimonidine), the equivalent amount of HR97 peptide alone, or saline alone in 100 µL saline. On day 7, day 14, day 21, and day 28, an ophthalmologist masked to treatment performed the same safety evaluations described above. IOP was measured on days 2, 3, 4, 5, 6, 7, 8, 10, 12, 14, 16, 18, and 20 after the ICM injection, and change in IOP from the baseline (ΔIOP) was reported. The mean of three IOP measurements was taken for each eye by one observer, and then confirmed by a masked observer. Alternatively, a single topical eye drop (Alphagan® P 0.1%, 50 µL) was given (n = 5). The IOP were measured immediately before the topical dosing (0 h), and at 2, 4, 6 and 8 h after the eyedrop administration. For the pharmacokinetics studies, rabbits (n = 4 per group) received a single ICM injection with 200 µg (mass of brimonidine) HR97-brimonidine as described above. Rabbits were sacrificed 1, 7, 14, 28 days after the injection, and iris, aqueous, and retina were collected for measuring the brimonidine concentration."}, "[2]": {"test_system": "ARPE-19 cells", "test": "Cell viability assay of HR97 peptide (PrestoBlue HS)", "assay_type": "cell-based, human", "details": "concentrations up to 5 mg/mL, 12 h incubation, n = 5", "procedure": "The PrestoBlue^TM HS cell viability system was used to assess cell viability. ARPE-19 cells were seeded at 0.01 × 10^6 cells/well in 96 well plates and cultured with DMEM:F12 medium containing 10% FBS according to the vendor protocol. After 7 days, 90 µL of DMEM/F12 containing 0, 1, 5, 10, or 20 mg/mL of the HR97 was added. The cells (n = 5) were then incubated for 12 h, and viability was measured by adding 10 µL of PrestoBlue^TM HS cell viability reagents at 37 °C. After 0.5, 1, 2, 3, 4 and 5 h, absorbance (570 nm and 600 nm) was measured at 37 °C and normalized according to the protocol provided by the vendor."}, "[3]": {"test_system": "human cathepsins B, K, L, and S", "test": "in vitro", "details": "isolated enzyme cathepsin other, pH 5.5, cathepsin cleavage assay"}}, "note": "Ends that are not written are not given here.", "data": [{"sequence": "FSGKRRKRKPR [HR97]", "values": [{"measurement": "Ocular grading, all 17 items (pupillary light reflex to Meibomian gland function)", "setting": "[1]", "result": "All values are zero"}, {"measurement": "Ocular grading, all other scores of the 17 items", "setting": "[1]", "result": 0}, {"measurement": "Ocular grading: Fluorescein staining (area)", "setting": "[1]", "result": 1}, {"measurement": "Ocular grading: Fluorescein staining (severity)", "setting": "[1]", "result": 1}, {"measurement": "ocular toxicity, ophthalmologist evaluation", "setting": "[1]", "result": "no ocular toxicity was observed"}, {"measurement": "cytotoxicity in ARPE-19 cells", "setting": "[2]", "result": "no sign of cytotoxicity"}, {"measurement": "remaining at 48 h, 100 µM", "setting": "[3]", "result": 87.7, "unit": "%"}]}]}
